This note sets out measurements from US20050288247A1, “Inducible inactivation of synaptic transmission” (Cold Spring Harbor Laboratory, priority 2004, published 2005).

Experiment [1] deals with synaptic transmission of cortical neurons in cultured brain slices. Put plainly: Evoked EPSCs in cultured brain slices infected with adenovirus-based VAMP MIST construct. Type of experiment: cell-based. The text has this:
We first tested the VAMP MIST construct in cultured brain slices. The adenovirus-based VAMP MIST construct was used to infect cortical neurons in cultured brain slices. Synaptic transmission was evoked with extracellular stimulation.

Experiment [2] concerns synaptic transmission in acute cortical brain slices. Put plainly: Whole cell EPSC measurements in layer 2 pyramidal neurons in acute brain slices. Type of experiment: cell-based, mice. The text has this: We further characterized CID-dependent inactivation of synaptic transmission using whole cell measurements of EPSC in layer (L) 2 pyramidal neurons in acute brain slices. MIST constructs were introduced into L 3 cells in vivo using in utero viral vector mediated gene delivery (VAMP/Syb MIST) or electroporation (Sph-StxTM MIST). Synaptic transmission was evoked with an extracellular stimulation electrode placed in a band of transfected/infected neurons, below (within 200 μm) the recording pipette.
Cortical brain slices (300 μm thick) were prepared from young mice (postnatal day 9-14) using a vibrating-blade microtome (VT1000S, Leica Microsystems). Chilled cutting solution contained 110 mM choline chloride, 25 mM NaHCO3, 25 mM D-glucose, 11.6 mM sodium ascorbate, 7 mM MgSO4, 3.1 mM sodium pyruvate, 2.5 mM KCl, 1.25 mM NaH2PO4, and 0.5 mM CaCl2. Slices were then transferred to artificial cerebrospinal fluid (“ACSF”) containing 127 mM NaCl, 25 mM NaHCO3, 25 mM D-glucose, 2.5 mM KCl, 2 mM MgCl2,1 mM CaCl2, and 1.25 mM NaH2PO4, aerated with 95% O2/5% CO2. Slices in ACSF were first incubated at 34° C. for 0.5 hr, then maintained at room temperature prior to use. For recordings, ACSF contained 4 mM MgCl2, 4 mM CaCl2 and […] CPP.
Neurons were visualized with infrared differential interference contrast optics, and patched using borosilicate electrodes (resistances, 4-7 MΩ). Access resistances were in the range 10-30 MΩ. Intracellular solution contained 120 mM CsMeSO3, 20 mM CsCl, 4 mM NaCl, 10 mM HEPES, 10 mM BAPTA, 4 mM Mg2ATP, and 0.3 mM Na2GTP, 14 mM sodium phosphocreatine, 3 mM ascorbate, and 0.1 Alexa-594 (Molecular Probes); pH was adjusted to 7.25 with CsOH. Excitatory currents were measured at a holding potential of −65 mV, close to reversal for fast inhibition. MIST-expressing neurons were stimulated with tungsten bipolar electrode in the middle of transfected region, and monosynaptic responses were recorded from cells within […]. Responses were amplified (Multiclamp, Axon Instruments), filtered at 1 kHz, and digitized at 10 kHz. […]

Turning to `CC[C@H](C(=O)N1CCCC[C@H]1C(=O)O[C@H](CCc1ccc(OC)c(OC)c1)c1cccc(OCC(=O)NCC(CNC(=O)COc2cccc([C@@H](CCc3ccc(OC)c(OC)c3)OC(=O)[C@@H]3CCCCN3C(=O)[C@@H](CC)c3cc(OC)c(OC)c(OC)c3)c2)CN(C)C)c1)c1cc(OC)c(OC)c(OC)c1` [AP20187], the “amplitudes of monosynaptic EPSC and network discharge” value in experiment [1] (20 nM AP20187 in DMSO added to the bath, VAMP MIST infected slices) is recorded as “rapid decrease”. The “amplitude of monosynaptic EPSCs” value in experiment [2] (bath application 100 nM AP20187, VAMP/Syb MIST) was “rapid decrease”. As to `CC[C@H](C(=O)N1CCCCC1C(=O)O[C@H](CCc1ccc(OC)c(OC)c1)c1cccc(OCC(=O)NCCCN(C)C)c1)c1cc(OC)c(OC)c(OC)c1` (some centres unmarked) [AP21998], the “recovery of monosynaptic EPSC and network discharge” value in experiment [1] (200 nM AP21998 reverser after homodimerizer) was “rapid recovery”. Also, the “recovery of synaptic response with reverser” value in experiment [2] (excess of monomeric reverser, 5 μM AP21998) is “rapid partial recovery”.

Consider AP21967, for which the “amplitude of monosynaptic EPSCs” value in experiment [2] (bath application 500 nM AP21967, Sph-StxTM MIST) is “rapid decrease”.
